{
  "source": "patent US5726195A",
  "about": "“Aminoacyl adenylate mimics as novel antimicrobial and antiparasitic agents” (Cubist Pharmaceuticals, Inc., priority 1996, dated 1998)",
  "key": {"[1]": {"tested_on": "Streptococcus pyogenes (ATCC 8668)", "experiment": "Mouse protection test against wild type Streptococcus pyogenes", "assay_type": "in vivo, Streptococcus pyogenes; female CD-1 mice", "conditions": "for Protective % / Number of Alive: repeated at 4 hours, 7 days; for Number of Alive: of 5 mice", "description": "The mouse protection test is an industry standard for measuring the efficacy of a test compound in vivo [for examples of this model see J. J. Clement, et al., Antimicrobial Agents and Chemotherapy, 38 (5), 1071-1078, (1994)]. As exemplified below, this test was used to show the in vivo efficacy of the compounds of the present invention against bacteria.\nThe in vivo antibacterial activity of compound X was established by infecting female CD-1 mice (Charles River Lab, Massachusettes) weighing 20-24 g intraperitoneally with Streptococcus pyogenes inoculum. The inoculum was prepared from Streptococcus pyogenes (ATCC 8668) which was cultured in brain heart infusion broth (Baltimore Biological Laboratories,Maryland) at 37° C. for 18 hr, and then 0.1 ml of the overnight culture was diluted with the medium to 5.0 ml for reading its OD at 600 nm (0.017). The turbidity of a 0.5 McFarland standard is equivalent to OD600 0.1, or 10^8 cfu/ml. Then, 8×10^5 cfu of the bacteria (940 μl of 1:1000 overnight culture) was added to 20 ml of phosphate buffered saline (Sigma P-0261 ) containing 5% hog gastric mucin (Sigma M-2378). All animals were injected with 0.5 ml of the inoculum, equivalent to 2×10^4 cfu/mouse which is the dose causing ~100% death of the animals without treatment.\nCompound X (50 mg) was dissolved in 5.0 ml of 0.05M Tris.HCl (pH 8.8) to give a solution of 10 mg/ml. This solution was serially diluted with 0.05 M Tris.HCl by 5-fold (1.0 ml to 5.0 ml) to give 2, 0.4 and 0.08 mg/ml solutions. The known antibiotic erythromycin (Sigma E-6376, in phosphate buffered saline, 1 mg/ml, pH 7.0) was used as a positive control. All the solutions were filtered with 0.2 μm Nalgene syringe filter. Immediately after the bacterial inoculation, group 1 animals were subcutaneously (sc) injected with 0.05M Tris.HCl (no antibiotic) and groups 2 to 5 were given compound X sc at 0.8, 4, 20, and 100 mg/kg, respectively. Group 6 animals received erythromycin sc at 10 mg/kg. These injections were repeated once at 4 hours after the inoculation for the respective groups. The injection volume at each time was 10 ml per kilogram of body weight. The 50% protective dose (PD50) is calculated on the basis of the number of mice surviving 7 days after inoculation."}, "[2]": {"biological_target": "E. Coli. IleRS (isoleucyl-tRNA synthetase) (Escherichia coli, UniProt P00956)", "sequence (P00956 whole entry)": "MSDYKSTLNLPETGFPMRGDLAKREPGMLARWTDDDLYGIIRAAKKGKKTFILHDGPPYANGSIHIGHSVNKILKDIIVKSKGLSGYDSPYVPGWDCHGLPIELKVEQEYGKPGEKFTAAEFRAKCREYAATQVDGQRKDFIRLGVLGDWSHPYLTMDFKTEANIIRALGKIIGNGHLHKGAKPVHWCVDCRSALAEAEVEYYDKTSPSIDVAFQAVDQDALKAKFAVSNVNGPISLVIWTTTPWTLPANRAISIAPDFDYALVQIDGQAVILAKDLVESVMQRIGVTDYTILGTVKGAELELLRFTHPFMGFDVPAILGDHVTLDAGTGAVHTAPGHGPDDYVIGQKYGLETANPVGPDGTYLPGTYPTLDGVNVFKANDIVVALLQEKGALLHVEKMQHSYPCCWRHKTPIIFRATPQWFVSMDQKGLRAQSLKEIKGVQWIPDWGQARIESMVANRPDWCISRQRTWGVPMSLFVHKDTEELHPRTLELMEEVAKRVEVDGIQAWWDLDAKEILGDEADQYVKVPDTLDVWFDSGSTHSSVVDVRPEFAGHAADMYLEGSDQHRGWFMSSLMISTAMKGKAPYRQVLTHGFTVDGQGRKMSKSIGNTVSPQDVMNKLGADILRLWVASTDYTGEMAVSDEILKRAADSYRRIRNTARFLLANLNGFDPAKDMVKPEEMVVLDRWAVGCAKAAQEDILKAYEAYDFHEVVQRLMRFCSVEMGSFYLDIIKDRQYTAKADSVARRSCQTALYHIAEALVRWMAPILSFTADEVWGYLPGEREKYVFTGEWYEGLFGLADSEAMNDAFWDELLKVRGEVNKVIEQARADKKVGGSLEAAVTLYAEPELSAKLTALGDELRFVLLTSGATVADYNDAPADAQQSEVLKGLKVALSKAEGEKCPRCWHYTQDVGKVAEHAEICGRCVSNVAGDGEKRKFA", "experiment": "Inhibition of isoleucyl-tRNA synthetase (aminoacylation of tRNA with [3H]isoleucine)", "assay_type": "biochemical", "conditions": "read-out: IC50 E.Coli. IleRS; E. coli enzyme; irreversible inhibitors: values are 50% of the active enzyme concentration", "how_it_was_run": "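Enzyme (0.08-2.0 nM, preferably 0.4 nM) preincubated 20 min at 25° C. with compound, then reacted at 25° C. with 4 mM ATP, 5-20 μM [3H]isoleucine, 90 μM crude or 2 μM specific tRNA in HEPES pH 7.5. TCA-precipitable radioactivity counted; IC50 relative to uninhibited activity.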"}, "[3]": {"tested_on": "Streptococcus pyogenes (ATCC 8668)", "experiment": "Mouse protection test against wild type Streptococcus pyogenes", "assay_type": "in vivo, Streptococcus pyogenes; female CD-1 mice", "conditions": "0.08 mg/kg sc, repeated at 4 hours, 7 days"}},
  "data": [
    {"smiles": "CC[C@H](C)[C@H](N)C(=O)NS(=O)(=O)OC[C@H]1O[C@@H](CCn2nnc(-c3ccc(Oc4ccccc4)cc3)n2)[C@H](O)[C@@H]1O", "note": "[Compound X, [S-(R*,R*)]-3,6-anhydro-1,2-dideoxy-1-[5-(4-phenoxyphenyl)-2H-tetrazol-2-yl]-D-allo-heptitol 7-(2-amino-3-methyl-1-oxopentyl)sulfamate]", "values": [
      {"measurement": "Protective %", "setting": "[1]; 4 mg/kg sc", "value": 0, "unit": "%"},
      {"measurement": "Number of Alive", "setting": "[1]; 4 mg/kg sc", "value": 0},
      {"measurement": "Protective %", "setting": "[1]; 20 mg/kg sc", "value": 40, "unit": "%"},
      {"measurement": "Number of Alive", "setting": "[1]; 20 mg/kg sc", "value": 2},
      {"measurement": "Protective %", "setting": "[1]; 100 mg/kg sc", "value": 100, "unit": "%"},
      {"measurement": "Number of Alive", "setting": "[1]; 100 mg/kg sc", "value": 5},
      {"measurement": "ED50", "setting": "[1]; Streptococcus pyogenes, ATCC8668, 168 h, sc, mice surviving 7 days after inoculation, wild type, read-out: PD50 (50% protective dose)", "value": 21.1, "unit": "mg/kg"},
      {"measurement": "IC50", "setting": "[2]", "value": 1.3, "unit": "nM"},
      {"measurement": "Protective %", "setting": "[3]", "value": 0, "unit": "%"},
      {"measurement": "Number of Alive", "setting": "[3]; of 5 mice", "value": 0}
    ]}
  ]
}
